Assay results as given in ChEMBL document CHEMBL5120888, “Voratins A-C: Pyridinium Alkaloids from the Marine Dinoflagellate Effrenium voratum with Inhibitory Effects on Biomarkers for Benign Prostatic Hyperplasia” (J Nat Prod, 2022).
The source made the active and inactive calls. The calls are words filed in the database; no cut-off is given here.

Legend:
[1] = system: LNCaP; test: Suppression of testosterone propionate induced PSA expression in human LNCaP cells pretreated with TP for 1 hr followed by compound addition at 10 uM by Western blotting analysis; format: functional, cell-based
[2] = system: LNCaP; test: Suppression of testosterone propionate induced AR expression in human LNCaP cells pretreated with TP for 1 hr followed by compound addition at 10 uM by Western blotting analysis; format: functional, cell-based
[3] = system: LNCaP; test: Suppression of testosterone propionate induced 5AR2 expression in human LNCaP cells pretreated with TP for 1 hr followed by compound addition at 10 uM by Western blotting analysis; format: functional, cell-based
[4] = Inhibition of testosterone propionate induced 5AR2 expression in human LNCaP cells pretreated with TP for 1 hr followed by compound addition at 10 uM by Western blotting analysis; format: functional
[5] = system: RWPE-1; test: Inhibition of testosterone propionate induced PCNA expression in human RWPE-1 cells pretreated with TP for 1 hr followed by compound addition at 1 to 10 uM by Western blotting analysis; format: functional, cell-based; details: dose 1-10 µM
[6] = Inhibition of testosterone propionate induced PSA expression in human RWPE-1 cells pretreated with TP for 1 hr followed by compound addition at 1 to 10 uM by Western blotting analysis; format: functional; parameters: scale not given: the % may be the effect or the level left; details: dose 1-10 µM
[7] = system: LNCaP; test: Inhibition of testosterone propionate induced PSA expression in human LNCaP cells pretreated with TP for 1 hr followed by compound addition at 1 to 10 uM by Western blotting analysis; format: functional, cell-based; details: dose 1-10 µM
[8] = system: LNCaP; test: Inhibition of testosterone propionate induced AR expression in human LNCaP cells pretreated with TP for 1 hr followed by compound addition at 1 to 10 uM by Western blotting analysis; format: functional, cell-based; details: dose 1-10 µM
[9] = system: RWPE-1; test: Cytotoxicity against human RWPE-1 cells at 0.1 to 1 uM incubated for 24 hrs by MTT assay; format: toxicity, cell-based; details: rwpe-1, 24 h, dose 0.1-1 µM
[10] = Inhibition of testosterone propionate induced PSA expression in human LNCaP cells pretreated with TP for 1 hr followed by compound addition at 10 uM by Western blotting analysis; format: functional

| Compound | Activity [1] | Activity [2] | Activity [3] | inhibition at 10 µM [4] | inhibition [5] | Activity [6] | inhibition [7] | inhibition [8] | Activity [9] | inhibition at 10 µM [10] |
| --- | --- | --- | --- | --- | --- | --- | --- | --- | --- | --- |
| CC(C)(C)NC(=O)[C@H]1CC[C@H]2[C@@H]3CC[C@H]4NC(=O)C=C[C@]4(C)[C@H]3CC[C@]12C | Active | Active | Active | – | – | – | – | – | – | – |
| C[C@@H]1C[C@H]([C@@H](O)c2cccc3[n+]2CC[C@@H]3C)O[C@@]2(CC[C@H](C(=O)[O-])O2)C1 | – | – | – | 61% | Active | 65% | Active | Active | Non-Toxic | 61% |
| C=C1C[C@H](C(=O)[O-])O[C@@]2(C1)C[C@@H](C)C[C@H]([C@@H](O)c1cccc3[n+]1CC[C@@H]3C)O2 | – | – | – | 53% | – | – | – | Active | Non-Toxic | 53% |
| C=C1C[C@H](C(=O)[O-])O[C@@]2(C1)C[C@@H](C)C[C@H]([C@@H](O)c1cccc3[n+]1CC[C@H]3C)O2 | – | – | – | – | – | – | Active | Active | Non-Toxic | – |
